This note sets out measurements from ChEMBL document CHEMBL2073911, “Sensitivity of bile acid transport by organic anion-transporting polypeptides to intracellular pH” (Biochim Biophys Acta, 2003).

In the data set the target is T1, Solute carrier organic anion transporter family member 1A1 (Rattus norvegicus, UniProt P46720).
T1 sequence (P46720 whole entry): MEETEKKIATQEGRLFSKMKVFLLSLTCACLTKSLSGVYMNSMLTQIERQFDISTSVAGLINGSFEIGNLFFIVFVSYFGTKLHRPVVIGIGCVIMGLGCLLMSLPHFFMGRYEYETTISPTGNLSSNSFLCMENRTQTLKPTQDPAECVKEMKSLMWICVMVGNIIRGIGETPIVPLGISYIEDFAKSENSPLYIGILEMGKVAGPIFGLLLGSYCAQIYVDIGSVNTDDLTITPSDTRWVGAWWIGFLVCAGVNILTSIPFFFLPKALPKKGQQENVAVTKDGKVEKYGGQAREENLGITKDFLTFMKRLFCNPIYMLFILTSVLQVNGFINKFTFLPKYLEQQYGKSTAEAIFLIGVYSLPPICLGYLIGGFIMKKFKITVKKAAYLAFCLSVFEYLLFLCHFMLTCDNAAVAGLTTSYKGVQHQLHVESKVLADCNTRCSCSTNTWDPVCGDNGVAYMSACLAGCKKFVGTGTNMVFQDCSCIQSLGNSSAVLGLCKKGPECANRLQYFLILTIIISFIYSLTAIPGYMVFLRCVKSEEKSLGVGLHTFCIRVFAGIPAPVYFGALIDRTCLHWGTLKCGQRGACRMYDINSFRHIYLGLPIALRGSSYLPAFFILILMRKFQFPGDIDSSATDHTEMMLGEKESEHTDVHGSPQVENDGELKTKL
The experiment in a line: TP_TRANSPORTER: uptake in Oatp1-expressing CHO-03 cell. The format is functional, cell-based. As to conditions: hamster.

Regarding `C[C@H](CCC(=O)NCC(=O)O)[C@H]1CC[C@H]2[C@@H]3[C@H](O)C[C@@H]4C[C@H](O)CC[C@]4(C)[C@H]3C[C@H](O)[C@]12C` [GLYCOCHOLIC ACID], the Activity result is “substrate [+]”.
